PMC4279163, “Inhibitory Effect of b-AP15 on the 20S Proteasome” (Biomolecules, 2014)
“And” between values parts separate entries of the source, which are not always exact repeats. Equal entries are not always repeated. Where two headings read alike, the source gives them in different places.

Key:
[1] = system: 20S proteasome; parameters: method as in PMID 22057347; details: 50 μM; SDS as activator; cited from earlier work
[2] = target: T1, 20S proteasome, chymotrypsin-like activity (Homo sapiens, UniProt P28074); assay: 20S proteasome assay, chymotrypsin-like activity (Suc-LLVY-AMC); assay type: biochemical; parameters: purchased Calbiochem; details: for IC50: Suc-LLVY-AMC 20 μM, mean ± SD, three assays
Method: (§1) Proteasome assay kits were purchased from Calbiochem, San Diego, CA. The effect of the proteasome inhibitors on the 20S proteasome activities was assayed following the protocols provided by the manufacturer. The major components of the assay mixture are the human 20S proteasome, fluorogenic peptide substrates and a proteasome activator. […] The concentrations of the proteasome activators used, PA28, PALAME, and SDS were 2 μg/mL, 19 μM, and 0.03% (V/V), respectively.
(§2) The trypsin-like and caspase-like activities of the 20S proteasome were determined using the fluorogenic substrates Bz-VGR-AMC (20 μM) and (Z)-LLEbNA (20 μM), respectively. Fluorescence generated from the proteolytic reaction in the presence of various concentrations of the inhibitors was measured using a BioTek fluorometer. […] The value of IC50 is expressed as mean ± standard deviation from three independent assays using CalcuSyn (Biosoft, Cambridge, UK).

[3] = target: T2, human 19S regulatory particles (Homo sapiens, UniProt P54578+Q9Y5K5); assay: 19S regulatory particle de-ubiquitinase assay (ub-AMC); assay type: biochemical; details: 19S 2.9 nM; ub-AMC 1 μM; read-out: IC50, deubiquitinase activities of the 19S regulatory particles
T2 construct: purchased Boston Biochem
Method: Figure 2 (a) b-AP15 inhibited the 19S regulatory particles. The activity of human 19S regulatory particles (Boston Biochem) was determined in the presence of the fluorogenic substrate ub-AMC and various concentrations of b-AP15 as indicated using a reported assay condition. RFU denotes the relative fluorescence units of the reactions; (b) Inhibitory effect of b-AP15 on the chymotrypsin-like activity of the 20S proteasome. BG in the figure denotes background.
The de-ubiquitinase activities of the human 19S regulatory particles (proteasome) (Boston Biochem, Boston, MA, USA) were determined in the presence of the fluorogenic substrate ub-AMC (Boston Biochem) and various concentrations of b-AP15 using the reported assay condition. The reaction buffer used contained 25 mM HEPES, 50 mM NaCl, 10 mM MgCl2, 2 mM ATP, and 1 mM DDT. The human 19S regulatory particles and the substrate ub-AMC were used at a final concentration of 2.9 nM, and 1 μM, respectively. The proteolysis reaction rate was monitored using a BioTek fluorometer (Winooski, VT, USA).

[4] = system: proteasome of HeLa Ub^G76V-GFP cells; assay: Cell-based proteasome inhibition assay (Ub-GFP accumulation); details: 24 h
Method: It was shown that b-AP15 at 50 μM inhibited the deubiquitination by the 19S regulatory particle, but not the 20S proteasome in in vitro enzymatic assays. […] HeLa Ub^G76V-GFP cells express ubiquitin-green fluorescent protein (Ub-GFP), which is efficiently degraded by the proteasome. HeLa Ub^G76V-GFP cells accumulate Ub-GFP in the presence of proteasome inhibitors. […] Some of the HeLa Ub^G76V-GFP cells turned green in the presence of b-AP15 at a concentration as low as 0.32 μM (Figure 1b). […] Ub-YFP was accumulated in the MelJuSo Ub-YFP cells at a b-AP15 concentration as low as 0.7 μM [12].
Figure 1 b-AP15 inhibited the proteasome of HeLa ubiquitin-green fluorescent protein (Ub^G76V-GFP) cells. HeLa Ub^G76V-GFP cells were treated with b-AP15 at 0.95 μM (a,d); 0.32 μM (b,e), or no b-AP15 (c,f) for 24 h, where (a), (b), and (c) are fluorescence microscopic images; (d), (e), and (f) are regular phase contrast images of the cells.
HeLa Ub^G76V-GFP cells (kindly provided by Nico P. Dantuma, Karolinska Institutet, Stockholm, Sweden) were cultured in DMEM medium supplemented with 10% fetal calf serum, 100 units/mL of penicillin, and 100 µg/mL of streptomycin. […] The green fluorescence emitted by the treated HeLa Ub^G76V-GFP cells was then observed and documented with a Nikon fluorescent microscopic system.

[5] = target: T3, human 20S proteasome, caspase-like activity (Homo sapiens, UniProt P28072); assay: 20S proteasome assay, caspase-like activity ((Z)-LLEbNA); assay type: biochemical
T3 construct: purchased Calbiochem
Method: as §1, §2

[6] = system: multiple myeloma; parameters: method as in PMID 24319254; details: human xenograft mouse model; cited from earlier work
[7] = target: T1, 20S proteasome, chymotrypsin-like activity; assay: HPLC analysis of the substrates and products of the 20S proteasome; assay type: biochemical; details: 0, 2.4, 9.6, 38 μM; PA28 11 μg/mL; 6 h, room temperature
Source text: b-AP15 is highly chromogenic with a conjugated π-bonding system that could potentially be quenching the emitted fluorescence from proteasome cleavage of the substrate. To eliminate the possible effect of quenching by b-AP15, we used HPLC to analyze the substrate and cleaved products, AMC (P1) and Suc-LLVY (P2), after the enzyme reactions. The ratio of P/S was used to express the relative amount of reaction product formation under the assay conditions, where P represents the products and S represents the substrate Suc-LLVY-AMC (S). […]
Figure 3 Inhibition of the chymotrypsin-like activity of the 20S proteasome. The reaction products of the 20S proteasome, AMC (P1), Suc-LLVY (P2), and substrate Suc-LLVY-AMC (S) were analyzed by HPLC. P1/S and P2/S are the ratios of the reaction products and the substrate calculated from the area under the curve of the HPLC profiles.
b-AP15 at various concentrations (0, 2.4, 9.6, and 38 μM) was incubated with the 20S proteasome (4.3 nM), substrate (Suc-LLVY-AMC, 0.2 mM), and PA28 (11 μg/mL) at room temperature for 6 h. […] The reaction products, AMC (P1), Suc-LLVY (P2), and substrate Suc-LLVY-AMC (S) in the filtrate were analyzed using reverse phase HPLC with a gradient of increasing acetonitrile/water ratio. […]

[8] = system: MelJuSo Ub-YFP reporter cell line; parameters: method as in PMID 22057347; details: MelJuSo Ub-YFP cells; cited from earlier work
[9] = target: T4, human 20S proteasome, trypsin-like activity (Homo sapiens, UniProt Q99436); assay: 20S proteasome assay, trypsin-like activity (Bz-VGR-AMC); assay type: biochemical; details: activator PA28; Bz-VGR-AMC 20 μM; read-out: IC50, trypsin-like activity of PA28-activated 20S proteasome
T4 construct: purchased Calbiochem
Method: as §1, §2

[10] = system: 19S regulatory particle; parameters: method as in PMID 22057347; details: 50 μM; cited from earlier work

C=CC(=O)N1C/C(=C\c2ccc([N+](=O)[O-])cc2)C(=O)/C(=C/c2ccc([N+](=O)[O-])cc2)C1 [b-AP15]
Inhibition of the 20S proteasome [1]: did not inhibit
inhibition at 48 µM ([2]; 48 μM, 0.03% SDS as activator, read-out: Inhibition of the chymotrypsin-like activity of the SDS-activated 20S proteasome): < 50%
IC50 ([2]; activator PA28 2 μg/mL, read-out: IC50, chymotrypsin-like activity of the 20S proteasome activated by PA28): 18.1 ± 3.22 µM
IC50 ([2]; activator PALAME 19 μM, read-out: IC50, chymotrypsin-like activity of the 20S proteasome activated by PALAME): 26 µM and 26.3 µM
IC50 ([2]; activator SDS 0.03%, read-out: IC50, chymotrypsin-like activity of the 20S proteasome activated by SDS): > 48 µM
IC50 [3]: 15.2 µM
Accumulation of Ub^G76V-GFP and/or GFP in cells ([4]; 0.95 μM): accumulation of Ub^G76V-GFP and/or GFP in majority of the cells
Lowest concentration at which some cells turned green ([4]; fluorescence microscopy): 0.32 µM
IC50 ([5]; activator PA28, (Z)-LLEbNA 20 μM, read-out: IC50, caspase-like activity of PA28-activated 20S proteasome): > 48 µM
Effect on the caspase-like activity ([5]; up to 48 μM, PA28-activated): did not significantly affect
Anti-multiple myeloma activity [6]: anti-multiple myeloma activity
Formation of the two cleaved products AMC (P1) and Suc-LLVY (P2) by HPLC [7]: inhibited the formation of the two cleaved products in a dose dependent manner
Lowest concentration at which Ub-YFP was accumulated [8]: 0.7 µM
IC50 [9]: 40.6 ± 5.23 µM
Inhibition of deubiquitination by the 19S regulatory particle [10]: inhibited
